From the supplement of paper PMC11451515

Tested on: NOMO1
Experiment: cell viability relative to DMSO control; higher = less cytotoxic
Details: 48 h
How it was run: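 NOMO1, SEM and P12-Ichikawa leukemia cells spent at least four passages adapting to each medium before use. They were seeded at 500 cells/well (NOMO1, SEM) or 1000 cells/well (P12-Ichikawa) in 5 μl in 1536-well plates and pin-dosed with library compounds in DMSO at 11 threefold steps from 47 μM down to 0.79 nM. After 48 h at 37°C, CellTiter-Glo One luminescence was read. Viability is reported as a percentage of the DMSO wells on each plate, with cell-free wells as background.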

[1] = HPLM + 10% dialyzed FBS, 0.000781 µM
[2] = HPLM + 10% dialyzed FBS, 0.00234 µM
[3] = HPLM + 10% dialyzed FBS, 0.00702 µM
[4] = HPLM + 10% dialyzed FBS, 0.0211 µM
[5] = HPLM + 10% dialyzed FBS, 0.0632 µM
[6] = HPLM + 10% dialyzed FBS, 0.19 µM
[7] = HPLM + 10% dialyzed FBS, 0.569 µM
[8] = HPLM + 10% dialyzed FBS, 1.71 µM
[9] = HPLM + 10% dialyzed FBS, 5.12 µM
[10] = HPLM + 10% dialyzed FBS, 15.4 µM
[11] = HPLM + 10% dialyzed FBS, 46.1 µM
[12] = RPMI 5 mM glucose + 10% FBS, 0.000781 µM
[13] = RPMI 5 mM glucose + 10% FBS, 0.00234 µM
[14] = RPMI 5 mM glucose + 10% FBS, 0.00702 µM
[15] = RPMI 5 mM glucose + 10% FBS, 0.0211 µM
[16] = RPMI 5 mM glucose + 10% FBS, 0.0632 µM
[17] = RPMI 5 mM glucose + 10% FBS, 0.19 µM
[18] = RPMI 5 mM glucose + 10% FBS, 0.569 µM
[19] = RPMI 5 mM glucose + 10% FBS, 1.71 µM
[20] = RPMI 5 mM glucose + 10% FBS, 5.12 µM
[21] = RPMI 5 mM glucose + 10% FBS, 15.4 µM
[22] = RPMI 5 mM glucose + 10% FBS, 46.1 µM
[23] = RPMI 5 mM glucose + 10% dialyzed FBS, 0.000781 µM
[24] = RPMI 5 mM glucose + 10% dialyzed FBS, 0.00234 µM
[25] = RPMI 5 mM glucose + 10% dialyzed FBS, 0.00702 µM
[26] = RPMI 5 mM glucose + 10% dialyzed FBS, 0.0211 µM
[27] = RPMI 5 mM glucose + 10% dialyzed FBS, 0.0632 µM
[28] = RPMI 5 mM glucose + 10% dialyzed FBS, 0.19 µM
[29] = RPMI 5 mM glucose + 10% dialyzed FBS, 0.569 µM
[30] = RPMI 5 mM glucose + 10% dialyzed FBS, 1.71 µM
[31] = RPMI 5 mM glucose + 10% dialyzed FBS, 5.12 µM
[32] = RPMI 5 mM glucose + 10% dialyzed FBS, 15.4 µM
[33] = RPMI 5 mM glucose + 10% dialyzed FBS, 46.1 µM

SMILES | cell viability [1] | cell viability [2] | cell viability [3] | cell viability [4] | cell viability [5] | cell viability [6] | cell viability [7] | cell viability [8] | cell viability [9] | cell viability [10] | cell viability [11] | cell viability [12] | cell viability [13] | cell viability [14] | cell viability [15] | cell viability [16] | cell viability [17] | cell viability [18] | cell viability [19] | cell viability [20] | cell viability [21] | cell viability [22] | cell viability [23] | cell viability [24] | cell viability [25] | cell viability [26] | cell viability [27] | cell viability [28] | cell viability [29] | cell viability [30] | cell viability [31] | cell viability [32] | cell viability [33]
CON(C)C(=O)N1\N=C(/S[C@]1(CCCN)C2=CC=CC=C2)C3=CC(=CC=C3F)F | 65% | 41.6% | 39.2% | 46.7% | 46.2% | 40.4% | 30.8% | 37.2% | 32.1% | 24.7% | 24.1% | 55.1% | 22.8% | 26.3% | 27.1% | 21.7% | 20% | 23.4% | 22.8% | 20.6% | 15.6% | 15.7% | 96% | 30.7% | 36.8% | 35% | 32.2% | 31.2% | 27.9% | 32.6% | 28.5% | 22.6% | 22.5%
CCC1=C2CN3C(=O)\C4=C(/C=C3/C2=NC5=CC=C(O)C=C15)[C@@](O)(CC)C(=O)OC4 | 102% | 96% | 97.8% | 60.5% | 27.1% | 25.9% | 28.2% | 23.4% | 22.8% | 24.8% | 27% | 93% | 95.5% | 92.5% | 91.8% | 18% | 16.6% | 20.7% | 17.4% | 19.6% | 16.6% | 16.1% | 104% | 90.1% | 91.8% | 69.8% | 23.6% | 22.5% | 26.6% | 21% | 22.7% | 22.2% | 21.2%
COCCNCCCn1c(C(=O)CF)c(-c2ccc(C)cc2)c2c(N)ncnc21 | 94.7% | 120% | 98.5% | 88.7% | 117% | 107% | 108% | 98% | 105% | 105% | 93.9% | 103% | 88% | 88.5% | 93.1% | 98% | 93.5% | 88.5% | 88.7% | 88.5% | 97.4% | 107% | 96.8% | 101% | 105% | 99.4% | 93.3% | 86.9% | 99.4% | 95.6% | 83.7% | 93% | 101%
NC(=O)c1ncn([C@@H]2O[C@H](CO)[C@@H](O)[C@H]2O)c1N | 127% | 111% | 96% | 136% | 111% | 121% | 123% | 123% | 126% | 115% | 83% | – | – | – | – | – | – | – | – | – | – | – | – | – | – | – | – | – | – | – | – | – | –
CC(=O)O[C@@]12CO[C@@H]1C[C@H](O)[C@]3(C)[C@@H]2[C@H](OC(=O)C4=CC=CC=C4)[C@]5(O)C[C@H](O)/C(=C(/[C@@H](O)C3=O)C5(C)C)C | 109% | 133% | 123% | 122% | 130% | 131% | 114% | 121% | 117% | 36.1% | 29.1% | 98.1% | 112% | 111% | 116% | 118% | 108% | 105% | 113% | 109% | 51.8% | 13.3% | 89.8% | 92.8% | 106% | 121% | 113% | 114% | 106% | 111% | 115% | 45.1% | 19.3%
Cc1ccc(Nc2nccc(N(C)c3ccc4c(C)n(C)nc4c3)n2)cc1[S+](N)(=O)[O-] | 107% | 118% | 102% | 112% | 121% | 129% | 126% | 112% | 132% | 112% | 50.9% | 93.9% | 101% | 92.1% | 103% | 99.5% | 101% | 107% | 114% | 105% | 100% | 50.3% | 95.8% | 92.1% | 102% | 85.4% | 104% | 112% | 105% | 123% | 110% | 97.2% | 71.1%
COC1=CC(=C2C(=O)N(COC/3=C/C(=O)N4\C=C/C=C(OCCN5CCCCC5)\C4=N3)[S+]([O-])(=O)C2=C1)C(C)C | – | – | – | – | – | – | – | – | – | – | – | 121% | 123% | 127% | 134% | 132% | 127% | 129% | 140% | 141% | 140% | 127% | – | – | – | – | – | – | – | – | – | – | –
CNCCN(C)Cc1c[nH]nc1-c1ccc(O[C@H]2C[C@H](OCCC3CCOCC3)C2)cc1 | 115% | 110% | 129% | 150% | 136% | 156% | 133% | 128% | 114% | 103% | 121% | 126% | 123% | 122% | 132% | 149% | 141% | 135% | 131% | 141% | 148% | 132% | 119% | 122% | 140% | 143% | 151% | 130% | 147% | 147% | 144% | 141% | 124%
CC(=O)[C@H]1CC[C@H]2[C@@H]3C/C=C4/C[C@@H](O)CC[C@]4(C)[C@H]3CC[C@]12C | 129% | 121% | 125% | 115% | 131% | 129% | 138% | 123% | 119% | 104% | 108% | 121% | 113% | 119% | 111% | 116% | 117% | 109% | 121% | 110% | 111% | 119% | 121% | 118% | 139% | 128% | 129% | 114% | 132% | 121% | 118% | 116% | 97.7%
